Legend:
Type in all cases: in vivo, BALB/c nude mice
KYSE-520 cells = assay: Esophageal KYSE-520 xenograft model; details: oral 30 mg/kg per day, once a day for 4 weeks, mice
Protocol: (§1) KYSE-520 cells were expanded in culture, harvested and injected subcutaneously into 6-8 weeks old female BALB/c nude mice (5×10^6 cell/each mouse, supplemented with Matrigel (1:1) for tumor development, n=9 per group). Subsequent administration of a compound by oral gavage started when the mean tumor size reached approximately 150-200 mm^3. During the treatment (once a day for 4 weeks), the tumor volumes were measured using a caliper. Statistical analysis of difference in tumor volume among the groups were evaluated using a one-way ANOVA. Vehicle alone was the negative control.

Mai-Pa-ca-2 cells = assay: Pancreatic cancer Mia-Pa-Ca-2 xenograft studies
Protocol: as §1, with “Mai-Pa-ca-2” for “KYSE-520”, “21 days),” for “4 weeks),”

NCI-H358 cells = assay: Combination treatment of a SHP2 inhibitor with other therapeutic agents, NSCLC with KRAS mutant xenograft; details: 10 mg/kg per day combined with CDK4/6 inhibitor SYB-020097 (30 mg/kg per day), oral once daily for 28 days, mice
Protocol: as §1, with “NCI-H358” for “KYSE-520”, “compound or combination of compounds” for “compound”

C[C@@H]1OCC2(CCN(c3ncc(Sc4cccc(Cl)c4Cl)[nH]c3=O)CC2)[C@@H]1N
anti-tumor activity compared with reference compound (KYSE-520 cells): superior anti-tumor activities than reference compound RMC-4550 | tumor growth inhibition (KYSE-520 cells): more than 90% | reduction of tumor growth, combination vs each compound alone (Mai-Pa-ca-2 cells; 30 mg/kg per day co-administered with CDK4/6 inhibitor SYB-020097 (50 mg/kg per day)): significantly higher reduction of tumor growth | reduction of tumor growth, combination vs each compound alone (Mai-Pa-ca-2 cells; 30 mg/kg per day co-administered with MEK inhibitor SYB-020099 (1 mg/kg per day)): significantly higher reduction of tumor growth | improvement of combination over monotherapy (NCI-H358 cells): more than 50%

Reference: patent publication US20230010886A1 (SUZHOU PUHE BIOPHARMA CO., LTD., priority 2019, published 2023)
